Reference: ChEMBL document CHEMBL1201862, “PubChem BioAssay data set” (2004)
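Cultured in 96-well plates, cells were exposed to test compound for 48 hours across five concentrations. Abbreviation: GI50, concentration required for 50% inhibition of growth.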 Active and inactive are the calls of the source. Rule as the data show it: active = GI50 up to about 1.1 µM and inactive = higher.

Assays:
Test in all cases: NCI anticancer screen, dose series, 48 h
T47D = test system: T47D
SW-620 = test system: SW-620
UO-31 = test system: UO-31
U-251 = test system: U-251
ACHN = test system: ACHN
M14 = test system: M14
SN12C = test system: SN12C
MDA-MB-231 = test system: MDA-MB-231
Malme-3M = test system: Malme-3M
NCI-H460 = test system: NCI-H460
HCT-116 = test system: HCT-116
SR = test system: SR
A549 = test system: A549
NCI/ADR-RES = test system: NCI/ADR-RES
HOP-92 = test system: HOP-92
DU-145 = test system: DU-145
SK-MEL-28 = test system: SK-MEL-28
HCT-15 = test system: HCT-15
MOLT-4 = test system: MOLT-4
A498 = test system: A498

| SMILES | GI50 (T47D) | GI50 (SW-620) | GI50 (UO-31) | GI50 (U-251) | GI50 (ACHN) | GI50 (M14) | GI50 (SN12C) | GI50 (MDA-MB-231) | GI50 (Malme-3M) | GI50 (NCI-H460) | GI50 (HCT-116) | GI50 (SR) | GI50 (A549) | GI50 (NCI/ADR-RES) | GI50 (HOP-92) | GI50 (DU-145) | GI50 (SK-MEL-28) | GI50 (HCT-15) [µM] | GI50 (MOLT-4) | GI50 (A498) |
| --- | --- | --- | --- | --- | --- | --- | --- | --- | --- | --- | --- | --- | --- | --- | --- | --- | --- | --- | --- | --- |
| O=C(OCc1ccccc1)N(CCCCN(CCCNCc1ccccc1)C(=O)OCc1ccccc1)CCCNCc1ccccc1 | 1.98 µM (inactive) | 0.221 µM (active) | 1.38 µM (inactive) | 0.258 µM (active) | 1.51 µM (inactive) | 0.252 µM (active) | 0.834 µM (active) | 0.885 µM (active) | 1.71 µM (inactive) | 0.188 µM (active) | 0.249 µM (active) | 0.191 µM (active) | 0.782 µM (active) | 1.71 µM (inactive) | 0.12 µM (active) | 1.27 µM (inactive) | 1.62 µM (inactive) | 0.352 | 0.194 µM (active) | 0.889 µM (active) |
| O=C(NC(O)(C(F)(F)F)C(F)(F)F)c1ccccc1 | > 100 µM (inactive) | > 100 µM (inactive) | > 100 µM (inactive) | > 100 µM (inactive) | > 100 µM (inactive) | > 100 µM (inactive) | > 100 µM (inactive) | > 100 µM (inactive) | > 100 µM (inactive) | > 100 µM (inactive) | > 100 µM (inactive) | > 100 µM (inactive) | > 100 µM (inactive) | > 100 µM (inactive) | > 100 µM (inactive) | > 100 µM (inactive) | > 100 µM (inactive) | > 100 | > 100 µM (inactive) | > 100 µM (inactive) |
| COc1ccc2c(c1)c1nn(CCN3CCCCC3)c3ccc4c(=O)n(CCN(C)C)c(=O)n2c4c13 | < 0.0175 µM (active) | < 0.01 µM (active) | < 0.0116 µM (active) | < 0.01 µM (active) | < 0.01 µM (active) | 0.0188 µM (active) | < 0.01 µM (active) | < 0.0119 µM (active) | 0.0619 µM (active) | < 0.01 µM (active) | < 0.01 µM (active) | < 0.01 µM (active) | < 0.01 µM (active) | < 0.153 µM (active) | 0.152 µM (active) | < 0.01 µM (active) | 0.139 µM (active) | < 0.01 | < 0.01 µM (active) | < 0.022 µM (active) |
| CC(C)C(/N=C/c1ccccc1O)C(=O)O (stereo not given) | > 100 µM (inactive) | > 100 µM (inactive) | > 100 µM (inactive) | > 100 µM (inactive) | > 100 µM (inactive) | > 100 µM (inactive) | > 100 µM (inactive) | 87.9 µM (inactive) | 55.3 µM (inactive) | > 100 µM (inactive) | > 100 µM (inactive) | > 100 µM (inactive) | > 100 µM (inactive) | > 100 µM (inactive) | > 100 µM (inactive) | > 100 µM (inactive) | > 100 µM (inactive) | > 100 | > 100 µM (inactive) | > 100 µM (inactive) |
| C[C@@]1(O)C2CC3CC1(c1ccccc1)CC(/C3=N/O)/C2=N\O (stereo not given in full) | > 100 µM (inactive) | > 100 µM (inactive) | > 100 µM (inactive) | > 100 µM (inactive) | > 100 µM (inactive) | > 100 µM (inactive) | > 100 µM (inactive) | > 100 µM (inactive) | > 100 µM (inactive) | > 100 µM (inactive) | > 100 µM (inactive) | > 100 µM (inactive) | > 100 µM (inactive) | > 100 µM (inactive) | > 100 µM (inactive) | > 100 µM (inactive) | > 100 µM (inactive) | > 100 | > 100 µM (inactive) | > 100 µM (inactive) |
| O=S1OC[C@H](CCCl)O1 (stereo not given in full) | > 100 µM (inactive) | > 100 µM (inactive) | > 100 µM (inactive) | > 100 µM (inactive) | > 100 µM (inactive) | > 100 µM (inactive) | > 100 µM (inactive) | > 100 µM (inactive) | > 100 µM (inactive) | > 100 µM (inactive) | > 100 µM (inactive) | > 100 µM (inactive) | > 100 µM (inactive) | > 100 µM (inactive) | > 100 µM (inactive) | > 100 µM (inactive) | 69.5 µM (inactive) | > 100 | > 100 µM (inactive) | > 100 µM (inactive) |
| COc1ccc(-n2nnnc2C2(Nc3ccccc3)CCN(Cc3ccccc3)CC2)cc1 | 14.7 µM (inactive) | 7.38 µM (inactive) | 7.48 µM (inactive) | 16.4 µM (inactive) | 31.8 µM (inactive) | 14.2 µM (inactive) | 7.29 µM (inactive) | 10.4 µM (inactive) | 13.4 µM (inactive) | 11.2 µM (inactive) | 7.8 µM (inactive) | 5.3 µM (inactive) | 14.2 µM (inactive) | 7.35 µM (inactive) | 3.45 µM (inactive) | 24.9 µM (inactive) | 13.5 µM (inactive) | 7.21 | 5.04 µM (inactive) | 12.8 µM (inactive) |
| CN(C)c1n/c(=N/Cc2ccncc2)ss1 | 10.7 µM (inactive) | 23.9 µM (inactive) | > 50 µM (inactive) | 17.9 µM (inactive) | 13.5 µM (inactive) | 16.8 µM (inactive) | 19.6 µM (inactive) | 37.8 µM (inactive) | 18.5 µM (inactive) | > 100 µM (inactive) | 20.5 µM (inactive) | 6.4 µM (inactive) | > 10 µM (inactive) | > 72.8 µM (inactive) | > 63.1 µM (inactive) | > 10 µM (inactive) | 36.8 µM (inactive) | 45 | 20.3 µM (inactive) | > 100 µM (inactive) |
| COC1/C=C/C(C)C(O)CC(O)/C=C/C(C)C(C(C)C(OC)C(C)CCC(=O)C(C)C(C/C=C/N(C)C=O)OC)OC(=O)/C=C/C=C(\C)CC(OC)CC2=CC(=O)O[C@@H](C(C)C(OC)C1)[C@H]2O (stereo not given in full) | 0.0219 µM (active) | < 0.005 µM (active) | 0.00769 µM (active) | < 0.005 µM (active) | < 0.005 µM (active) | < 0.005 µM (active) | < 0.005 µM (active) | < 0.005 µM (active) | < 0.005 µM (active) | < 0.005 µM (active) | < 0.005 µM (active) | 0.00736 µM (active) | 0.00507 µM (active) | 0.00656 µM (active) | 0.00612 µM (active) | 0.0221 µM (active) | 0.00588 µM (active) | < 0.005 | 0.0163 µM (active) | < 0.005 µM (active) |
| O=C1Nc2ccc(Br)cc2/C1=N/N1C(=O)C(=O)N(C2CCCCC2)C1=S | 2.62 µM (inactive) | 3.56 µM (inactive) | 1.51 µM (inactive) | 2.93 µM (inactive) | 4.83 µM (inactive) | 1.64 µM (inactive) | 3.43 µM (inactive) | 6.64 µM (inactive) | 3.21 µM (inactive) | 3.66 µM (inactive) | 2.72 µM (inactive) | 1.19 µM (inactive) | 5.26 µM (inactive) | 3.22 µM (inactive) | 14.4 µM (inactive) | 9.42 µM (inactive) | 4.07 µM (inactive) | 2.42 | 2.26 µM (inactive) | 3.76 µM (inactive) |
| CC[C@@]1(O)C(=O)OCc2c1cc1n(c2=O)Cc2c-1nc1ccccc1c2/C=N/NC(=O)c1ccc(N)cc1 | < 0.01 µM (active) | 0.0796 µM (active) | 0.258 µM (active) | < 0.0141 µM (active) | 0.0244 µM (active) | 0.0585 µM (active) | 0.0543 µM (active) | 3.06 µM (inactive) | 0.452 µM (active) | 0.0796 µM (active) | 0.1 µM (active) | < 0.01 µM (active) | 0.578 µM (active) | 0.392 µM (active) | 0.0447 µM (active) | 0.0383 µM (active) | 0.263 µM (active) | 2.95 | 0.0111 µM (active) | 0.33 µM (active) |
| CC1(c2ccc(Cl)cc2)CC(c2ccc(Cl)cc2)=C(C#N)C(=C(C#N)C#N)N1 (stereo not given) | 12.6 µM (inactive) | 12 µM (inactive) | 16.3 µM (inactive) | 12.2 µM (inactive) | 14.5 µM (inactive) | 18.5 µM (inactive) | 15 µM (inactive) | 22.5 µM (inactive) | 15.7 µM (inactive) | 22.9 µM (inactive) | 14.6 µM (inactive) | 11.5 µM (inactive) | 20.4 µM (inactive) | 19.3 µM (inactive) | 3.25 µM (inactive) | 14.9 µM (inactive) | 32.7 µM (inactive) | 15.8 | 6.81 µM (inactive) | 18.5 µM (inactive) |
| Cc1cc(=O)oc2cc(SC(=O)N(C)C)ccc12 | > 100 µM (inactive) | > 100 µM (inactive) | > 100 µM (inactive) | > 100 µM (inactive) | > 100 µM (inactive) | > 100 µM (inactive) | > 100 µM (inactive) | > 100 µM (inactive) | > 100 µM (inactive) | > 100 µM (inactive) | > 100 µM (inactive) | > 100 µM (inactive) | > 100 µM (inactive) | > 100 µM (inactive) | > 100 µM (inactive) | > 100 µM (inactive) | > 100 µM (inactive) | > 100 | > 100 µM (inactive) | > 100 µM (inactive) |
| Cc1ccc(SC2=C(N(C)C)C(=O)c3ccccc3C2=O)cc1 | 3.35 µM (inactive) | 1.46 µM (inactive) | 10.1 µM (inactive) | 8.05 µM (inactive) | 6.87 µM (inactive) | 3.27 µM (inactive) | 4.92 µM (inactive) | 4.24 µM (inactive) | 4.83 µM (inactive) | 6.3 µM (inactive) | 1.1 µM (active) | 0.631 µM (active) | 12.6 µM (inactive) | 0.847 µM (active) | 4.71 µM (inactive) | 10.7 µM (inactive) | 10.3 µM (inactive) | 2.45 | 0.82 µM (active) | 15.9 µM (inactive) |
